Read-outs that look alike come from different tables or passages of the source.
Experiments:
[1] = tested on: human ovarian cancer cell line A2780; experiment: Growth inhibition assay (CellTiter 96 Non-Rad Cell Proliferation Assay); format: cell-based; conditions: for IC50 / Emax: Homo sapiens; for efficacy compared with SHetA2 / IC50 compared with SHetA2: comparison in words; for IC50 compared with SHetA2: 'exceeded' = lower IC50 in Table 1
Method: To illustrate the general activity of the compounds inhibiting growth of human […] ovarian cancer cells, selected compounds were synthesized and evaluated. The compounds were dissolved in DMSO at a concentration of 0.01 M. The human ovarian cancer cell line A2780 was plated in 96-well tissue culture dishes at a concentration of 3000 cells per well in RPMI medium supplemented with 10% fetal bovine serum and a mixture of antibiotics and antimycotics. The next day, the cultures were treated in triplicate with compound concentrations ranging from 2 μM to 8 μM increments. For compound 12, additional experiments were performed with concentrations of 10 μM and a series of two-fold dilutions to 156 nM. Control cultures were treated with DMSO solvent only. After 72 h of incubation, the […] 96® Non-Rad Cell Proliferation Assay (Promega) was used to quantify the remaining metabolically living cells. After subtracting blank values, the optical density (OD) readouts of the assay for the treated cultures were normalized with the average OD of the control cultures. For each compound, the experiment was repeated at least once, resulting in a minimum of 6 dose-response curves. For SHetA2, 24 response curves were available for statistical fitting parameters. A custom program was written in GNU Octave, a free software compatible with Matlab, to fit the dose-response curves with a four-parameter sigmoid function, extracting the IC50 and efficacy (the maximal % growth inhibition) parameters.
To illustrate the useful biological activity of these chroman-substituted and tetrahydroquinoline-substituted heteroarotinoids, the compounds were screened against human […] ovarian cancer cells.

[2] = A2780, 72 h, Table 1, chroman-containing series
[3] = A2780, 72 h, Table 1, maximal % growth inhibition, A2780, 72 h, read-out: Efficacy
[4] = A2780, 72 h, Table 2, tetrahydroquinoline-containing members
[5] = A2780, 72 h, Table 2, maximal % growth inhibition, A2780, 72 h, read-out: Efficacy
[6] = A2780, Table 3, 14 series (thiochroman), A2780
[7] = A2780, Table 3, 14 series, A2780, read-out: % Efficacy

Row | Compound | IC50 [1, 2] | melting point | Emax [1, 3] | further results
1 | CC1(C)CC(C)(C)c2cc(NC(=S)Nc3ccc(C(F)(F)F)cc3)ccc2O1 [Compound 2c, 1-(2,2,4,4-Tetramethylchroman-6-yl)-3-(4-(trifluoromethyl)phenyl)thiourea] | 4.7 µM | 166 to 168 °C | 22% | –
2 | CC1(C)CC(C)(C)c2cc(NC(=S)Nc3ccc(S(N)(=O)=O)cc3)ccc2O1 [Compound 2d, 4-(3-(2,2,4,4-Tetramethylchroman-6-yl)thioureido)benzenesulfonamide] | – | 186 to 187 °C | – | –
3 | CC1(C)CC(C)(C)c2cc(NC(=O)Nc3ccc(C(F)(F)F)cc3)ccc2O1 [Compound 3a, 1-(2,2,4,4-Tetramethylchroman-6-yl)-3-(4-(trifluoromethyl)phenyl)urea] | 4.1 µM | 245 to 246 °C | 79% | –
4 | CC1(C)CC(C)(C)c2cc(NC(=O)Nc3ccc(C#N)cc3)ccc2O1 [Compound 3b, 1-(4-Cyanophenyl)-3-(2,2,4,4-tetramethylchroman-6-yl)urea] | – | 225 to 226 °C | – | efficacy compared with SHetA2 ([1]; A2780): exceeded the efficacy of SHetA2
5 | CC1(C)CC(C)(C)c2cc(NC(=O)Nc3ccc(OC(F)(F)F)cc3)ccc2O1 [Compound 3c, 1-(2,2,4,4-Tetramethylchroman-6-yl)-3-(4-(trifluoromethoxy)phenyl)urea] | 3.6 µM | 219 to 221 °C | 88.4% | efficacy compared with SHetA2 ([1]; A2780): exceeded the efficacy of SHetA2
6 | CC1(C)CCOc2ccc(NC(=S)Nc3ccc(C(F)(F)F)cc3)cc21 [Compound 4b, 1-(4,4-Dimethylchroman-6-yl)-3-(4-(trifluoromethyl)phenyl)thiourea] | 5.5 µM | 147 to 149 °C | 28% | –
7 | CC1(C)CCOc2ccc(NC(=S)Nc3ccc(OC(F)(F)F)cc3)cc21 [Compound 4c, 1-(4,4-Dimethylchroman-6-yl)-3-(4-(trifluoromethoxy)phenyl)thiourea] | 4.3 µM | 153 to 154 °C | 16% | –
8 | CC1(C)CCOc2ccc(NC(=O)Nc3ccc(OC(F)(F)F)cc3)cc21 [Compound 5c, 1-(4,4-Dimethylchroman-6-yl)-3-(4-(trifluoromethoxy)phenyl)urea] | 3.5 µM | 230 to 231 °C | 36% | –
9 | CCC1(CC)CC(C)(C)c2cc(NC(=O)Nc3ccc(C(F)(F)F)cc3)ccc2O1 [Compound 6c, 1-(2,2-Diethyl-4,4-dimethylchroman-6-yl)-3-(4-(trifluoromethyl)phenyl)urea] | 2.45 µM | 208 to 210 °C | 92.4% | efficacy compared with SHetA2 ([1]; A2780): exceeded the efficacy of SHetA2; IC50 compared with SHetA2 ([1]; A2780): exceeded
10 | CC1(C)CC(C)(C)c2cc(NC(=S)NCc3ccc(O)cc3)ccc2S1 [Compound 14p, 1-(4-Hydroxybenzyl)-3-(2,2,4,4-tetramethylthiochroman-6-yl)thiourea] | – | – | – | IC50 [1, 6]: 3.23 ± 0.49 µM; Emax [1, 7]: 56.8 ± 3.3%
11 | CC1(C)CC(C)(C)c2cc(NC(=S)NNc3ccccc3)ccc2S1 [Compound 14q, 2-Phenyl-N-(2,2,4,4-tetramethylthiochroman-6-yl)hydrazine-1-carbothioamide] | – | – | – | IC50 [1, 6]: 7.03 ± 0.31 µM; Emax [1, 7]: 63.6 ± 3.7%
12 | CC1(C)CC(C)(C)c2cc(NC(=S)NNC(=O)c3ccccc3)ccc2S1 [Compound 14r, 2-Benzoyl-N-(2,2,4,4-tetramethylthiochroman-6-yl)hydrazine-1-carbothioamide] | – | – | – | IC50 [1, 6]: 0.82 ± 0.21 µM; Emax [1, 7]: 67.9 ± 2.6%
13 | CC1(C)CC(C)(C)c2cc(NC(=S)NNC(=O)c3ccc([N+](=O)[O-])cc3)ccc2S1 [Compound 14s, 2-(4-Nitrobenzoyl)-N-(2,2,4,4-tetramethylthiochroman-6-yl)hydrazine-1-carbothioamide] | – | – | – | IC50 [1, 6]: 3.15 ± 0.19 µM; Emax [1, 7]: 43.3 ± 2.9%
14 | CC1(C)CC(C)(C)c2cc(NC(=S)NNC(=O)c3ccc(OC(F)(F)F)cc3)ccc2S1 [Compound 14t, N-(2,2,4,4-Tetramethylthiochroman-6-yl)-2-(4-(trifluoromethoxy)benzoyl)hydrazine-1-carbothioamide] | – | – | – | IC50 [1, 6]: 3.6 ± 0.18 µM; Emax [1, 7]: 57.4 ± 0.4%
15 | CC1(C)CC(C)(C)c2cc(NC(=S)NNC(=O)c3cc(C(F)(F)F)cc(C(F)(F)F)c3)ccc2S1 [Compound 14u, 2-(3,5-Bis(trifluoromethyl)benzoyl)-N-(2,2,4,4-tetramethylthiochroman-6-yl)hydrazine-1-carbothioamide] | – | – | – | IC50 [1, 6]: 4 ± 0.12 µM; Emax [1, 7]: 61.4 ± 2.9%
16 | CC1(C)CCSc2ccc(NC(=S)Nc3ccc([N+](=O)[O-])cc3)cc21 [Compound 14v, 1-(4,4-dimethyl-6-yl)-3-(4-nitrophenyl)thiourea] | – | – | – | IC50 [1, 6]: 4.01 ± 0.19 µM; Emax [1, 7]: 93.5 ± 1.7%

The next lines start with results.

Row | IC50 [1, 2] | melting point | Compound | Emax [1, 3] | further results
17 | 4.7 µM | 155 to 156 °C | CCC1(CC)CC(C)(C)Oc2ccc(NC(=S)Nc3ccc(C(F)(F)F)cc3)cc21 [Compound 7b, 1-(4,4-Diethyl-2,2-dimethylchroman-6-yl)-3-(4-(trifluoromethyl)phenyl)thiourea] | 11.8% | –
18 | 2.43 µM | 225 to 226 °C | CCC1(CC)CC(C)(C)Oc2ccc(NC(=O)Nc3ccc(C(F)(F)F)cc3)cc21 [Compound 7d, 1-(4,4-Diethyl-2,2-dimethylchroman-6-yl)-3-(4-(trifluoromethyl)phenyl)urea] | 93.3% | efficacy compared with SHetA2 ([1]; A2780): exceeded the efficacy of SHetA2; IC50 compared with SHetA2 ([1]; A2780): exceeded
19 | 2 µM | 165 to 166 °C | CCC1(CC)CC(CC)(CC)c2cc(NC(=O)Nc3ccc(C(F)(F)F)cc3)ccc2O1 [Compound 8c, 1-(2,2,4,4-Tetraethylchroman-6-yl)-3-(4-(trifluoromethyl)phenyl)urea] | 86.2% | IC50 compared with SHetA2 ([1]; A2780): exceeded
20 | 3 µM | 180 to 181 °C | CCC1(CC)CC(CC)(CC)c2cc(NC(=O)Nc3ccc(OC(F)(F)F)cc3)ccc2O1 [Compound 8d, 1-(2,2,4,4-Tetraethylchroman-6-yl)-3-(4-(trifluoromethoxy)phenyl)urea] | 67% | IC50 compared with SHetA2 ([1]; A2780): exceeded
21 | – | 219 to 220 °C | CC1(C)CCNc2ccc(NC(=O)Nc3ccc([N+](=O)[O-])cc3)cc21 [Compound 9a, 1-(4,4-Dimethyl-1,2,3,4-tetrahydroquinolin-6-yl)-3-(4-nitrophenyl)urea] | – | IC50 [1, 4]: 6.9 µM; Emax [1, 5]: 17.1%
22 | – | 150 to 152 °C | CC1(C)CCNc2ccc(NC(=S)Nc3ccc([N+](=O)[O-])cc3)cc21 [Compound 9b, 1-(4,4-Dimethyl-1,2,3,4-tetrahydroquinolin-6-yl)-3-(4-nitrophenyl)thiourea] | – | IC50 [1, 4]: 7.1 µM; Emax [1, 5]: 17.8%
23 | – | 104 to 105 °C | CC1(C)CCNc2ccc(NC(=S)Nc3ccc(C(F)(F)F)cc3)cc21 [Compound 9c, 1-(4,4-Dimethyl-1,2,3,4-tetrahydroquinolin-6-yl)-3-(4-(trifluoromethyl)phenyl)thiourea] | – | IC50 [1, 4]: 6 µM; Emax [1, 5]: 42%
24 | – | 69 to 71 °C | CC1(C)CCNc2ccc(NC(=S)Nc3ccc(OC(F)(F)F)cc3)cc21 [Compound 9d, 1-(4,4-Dimethyl-1,2,3,4-tetrahydroquinolin-6-yl)-3-(4-(trifluoromethoxy)phenyl)thiourea] | – | IC50 [1, 4]: 7.1 µM; Emax [1, 5]: 24%
25 | – | 200 to 201 °C | CN1c2ccc(NC(=O)Nc3ccc([N+](=O)[O-])cc3)cc2C(C)(C)C(=O)C1(C)C [Compound 11a, 1-(4-Nitrophenyl)-3-(1,2,2,4,4-pentamethyl-3-oxo-1,2,3,4-tetrahydroquinolin-6-yl)urea] | – | IC50 [1, 4]: 3.8 µM; Emax [1, 5]: 94.8%
26 | – | 145 to 147 °C | CN1c2ccc(NC(=S)Nc3ccc([N+](=O)[O-])cc3)cc2C(C)(C)C(=O)C1(C)C [Compound 11b, 1-(4-Nitrophenyl)-3-(1,2,2,4,4-pentamethyl-3-oxo-1,2,3,4-tetrahydroquinolin-6-yl)thiourea] | – | IC50 [1, 4]: 4.4 µM; Emax [1, 5]: 91.4%
27 | – | 198 to 199 °C | CN1c2ccc(NC(=O)Nc3ccc(C(F)(F)F)cc3)cc2C(C)(C)C(=O)C1(C)C [Compound 11c, 1-(1,2,2,4,4-Pentamethyl-3-oxo-1,2,3,4-tetrahydroquinolin-6-yl)-3-(4-(trifluoromethyl)phenyl)urea] | – | IC50 [1, 4]: 2.58 µM; Emax [1, 5]: 90.1%
28 | – | 191 to 192 °C | CN1c2ccc(NC(=O)Nc3ccc(OC(F)(F)F)cc3)cc2C(C)(C)C(=O)C1(C)C [Compound 11e, 1-(1,2,2,4,4-Pentamethyl-3-oxo-1,2,3,4-tetrahydroquinolin-6-yl)-3-(4-(trifluoromethoxy)phenyl)urea] | – | IC50 [1, 4]: 2.4 µM; Emax [1, 5]: 91.3%
